The test concerns the target T1, human equilibrative nucleoside transporter (hENT1) (Homo sapiens, UniProt Q99808).
T1 construct: gene SLC29A1; endogenous transporter in intact human erythrocytes
T1 sequence (Q99808 2-456): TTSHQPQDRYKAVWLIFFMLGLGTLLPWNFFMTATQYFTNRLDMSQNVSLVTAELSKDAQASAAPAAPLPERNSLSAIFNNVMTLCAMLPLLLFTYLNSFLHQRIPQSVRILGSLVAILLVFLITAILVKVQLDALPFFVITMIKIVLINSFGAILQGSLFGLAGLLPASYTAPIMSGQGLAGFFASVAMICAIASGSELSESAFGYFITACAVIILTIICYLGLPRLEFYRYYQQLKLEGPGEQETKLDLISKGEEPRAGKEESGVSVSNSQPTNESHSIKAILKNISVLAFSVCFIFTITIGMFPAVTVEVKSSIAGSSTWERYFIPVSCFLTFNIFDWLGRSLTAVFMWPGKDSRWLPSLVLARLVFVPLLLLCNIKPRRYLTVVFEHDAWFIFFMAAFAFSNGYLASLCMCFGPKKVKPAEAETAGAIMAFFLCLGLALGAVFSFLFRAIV
Kind of test: saturable [3H]-uridine uptake into uninfected human erythrocytes (Km). The format is cell-based.

Regarding `O=c1ccn([C@@H]2O[C@H](CO)[C@@H](O)[C@H]2O)c(=O)[nH]1` [uridine], the Km (as a rule, the substrate concentration at which the rate is half of its maximum) stood at 177 ± 30 µM.

For the origin of these results see paper PMC2825241, “Uptake of purines in Plasmodium falciparum-infected human erythrocytes is mostly mediated by the human Equilibrative Nucleoside Transporter and the human Facilitative Nucleobase Transporter” (2010).
